The values that follow are results of earlier work, collected in US8974824B2, “Lanthanum composition” (Mylan Laboratories Ltd., priority 2008, dated 2015).

For the series the following is noted: pH range of 3 to 5 in gastric fluid; Lanthanum in two-fold molar excess to phosphate.

On to `[La]` [Lanthanum], for which the available phosphate bound result is listed as “approximately 97%”.
